Source: patent US11186817B2, “Chemically defined cell culture media additive” (IUCF-HYU (INDUSTRY-UNIVERSITY COOPERATION FOUNDATION …, priority 2014, dated 2021)

Assays:
Format in all cases: cell-based, Chinese hamster
[1] = test system: CHO DG44 cell line; assay: Subculture characteristics of CHO DG44 in HY-CDM medium supplemented with THF; settings: 1.6 mg/L THF, HY-CDM with cod liver oil
Text: (§1) 1. Cell line and media: CHO DG44 cell line was used as a DHFR-deficient cell line. The cell line was passaged 80 times or more and suspension adapted in HY-CDM (in-house) media as chemically defined media. The suspension-adapted cell line was used to evaluate the influence of tetrahydrofolate (THF) and dihydrofolate (DHF) and the growth characteristics in commercial chemically defined media. The HY-CDM media were composed of chemically defined components only. Each HY-CDM medium further included a growth factor. HY-CDM media used in Examples 1, 3, and 4 were free of an animal derived lipid mixture, and HY-CDM media used in Example 2 were supplemented with cod liver oil.
(§2) 2. Cell suspension culture: The cell line was inoculated at a density of 4×10^5 cells/ml and cultured in an Erlenmeyer flask with a 30 ml/125 ml working volume on an orbital shaker at 120 rpm under humidified conditions at 37° C. and 5% CO2. Before inoculation, the cells were centrifuged at 1,000 rpm (×162 g) for 5 min, the supernatant was discarded, and the remaining cells were dispersed into single cells in the heated medium. The cells were passaged three times to minimize the influence of the remaining medium under the experimental conditions. The subcultured cells were evaluated.
(§3) 3. Density of live cells: The density of live cells was analyzed using a hemocytometer (Neubauer improved bright-line, Marienfeld, Germany), an inverted microscope (CK30, Olympus, Japan), and trypan blue dye exclusion.
A CHO DG44 cell line frozen-stored in an HY-CDM medium supplemented with 1.6 mg/L THF was thawed and subcultured every 2 days. On day 2 after the third passage, a cell density of 21.9±2.2×10^5 cells/ml and a doubling time of 20.3±1.3 h were observed, which were about 28% higher and about 20% more rapid than those of the control (17.1±3.4×10^5 cells/ml and 25.3±3.7 h), respectively (Table 2). The HY-CDM medium included a commercial lipid mixture containing cod liver oil as an animal derived component.

[2] = test system: CHO DG44 cell line; assay: Growth of CHO DG44 cell line in commercial chemically defined media with and without THF; settings: six commercial chemically defined media
Text: as §1
2. Cell suspension culture: The cell line was inoculated at a density of 4×10^5 cells/ml and cultured in an Erlenmeyer flask with a 30 ml/125 ml working volume on an orbital shaker at 120 rpm under humidified conditions at 37° C. and 5% CO2. […] The subcultured cells were evaluated.
as §3
In this example, the versatility of the effect of THF addition to induce cell growth was evaluated. […]

[3] = test system: CHO DG44 cell line; assay: Effective concentration range of THF: suspension growth of CHO DG44 in HY-CDM media; settings: HY-CDM
Text: as §1, §2, §3
In this example, the effective concentration range of THF inducing the suspension growth of the CHO DG44 cell line in the HY-CDM media was evaluated with varying amounts of THF.
To this end, the CHO DG44 cell line was passaged three time at a THF concentration of 0-480 mg/L, and their maximum cell densities and doubling times were measured.

[4] = after the third passage, subcultured every 2 days

## tetrahydrofolate [THF]
[1]; after the third passage
  Cell density higher than control: about 28%
  Doubling time more rapid than control: about 20%
[1]; [4]
  Cell density on day 2: 21.9±2.2 ×10^5 cells/ml
  Doubling time: 20.3 ± 1.3 h
[1]; number of subcultures 3
  Density of live cells on day 2 after culture: 19.2 ×10^5 cells/ml
  Doubling time: 21.6 h
[1]; number of subcultures 4
  Density of live cells on day 2 after culture: 22.3 ×10^5 cells/ml
  Doubling time: 21.1 h
[1]; number of subcultures 5
  Density of live cells on day 2 after culture: 19.1 ×10^5 cells/ml
  Doubling time: 18.8 h
[1]; number of subcultures 6
  Density of live cells on day 2 after culture: 23.3 ×10^5 cells/ml
  Doubling time: 20.2 h
[1]; number of subcultures 7
  Density of live cells on day 2 after culture: 23.5 ×10^5 cells/ml
  Doubling time: 21.3 h
[1]; number of subcultures 8
  Density of live cells on day 2 after culture: 24.1 ×10^5 cells/ml
  Doubling time: 18.6 h
[2]
  Effect on cell density and growth rate: increased the cell density and growth rate
[3]; THF 0.0016 mg/L
  Doubling time, Average: 24.7 h
  Doubling time, Passage 1: 26.8 h
  Doubling time, Passage 2: 27.2 h
  Doubling time, Passage 3: 20.3 h
  Maximum cell density, Average: 18.9 ×10^5 cells/ml
  Maximum cell density, Passage 1: 19.8 ×10^5 cells/ml
  Maximum cell density, Passage 2: 18.2 ×10^5 cells/ml
  Maximum cell density, Passage 3: 18.8 ×10^5 cells/ml
[3]; THF 0.0031 mg/L
  Doubling time, Average: 24.9 h
  Doubling time, Passage 1: 27.1 h
  Doubling time, Passage 2: 27.1 h
  Doubling time, Passage 3: 20.6 h
  Maximum cell density, Average: 19.8 ×10^5 cells/ml
  Maximum cell density, Passage 1: 20.6 ×10^5 cells/ml
  Maximum cell density, Passage 2: 18.2 ×10^5 cells/ml
  Maximum cell density, Passage 3: 20.5 ×10^5 cells/ml
[3]; THF 0.0063 mg/L
  Doubling time, Average: 23.6 h
  Doubling time, Passage 1: 26.4 h
  Doubling time, Passage 2: 24.3 h
  Doubling time, Passage 3: 20.1 h
  Maximum cell density, Average: 21.3 ×10^5 cells/ml
  Maximum cell density, Passage 1: 21.4 ×10^5 cells/ml
  Maximum cell density, Passage 2: 21.2 ×10^5 cells/ml
  Maximum cell density, Passage 3: 21.3 ×10^5 cells/ml
[3]; THF 0.0125 mg/L
  Doubling time, Average: 23.5 h
  Doubling time, Passage 1: 24.6 h
  Doubling time, Passage 2: 25.5 h
  Doubling time, Passage 3: 20.3 h
  Maximum cell density, Average: 21.5 ×10^5 cells/ml
  Maximum cell density, Passage 1: 23.6 ×10^5 cells/ml
  Maximum cell density, Passage 2: 18.8 ×10^5 cells/ml
  Maximum cell density, Passage 3: 22.0 ×10^5 cells/ml
[3]; THF 0.0250 mg/L
  Doubling time, Average: 22.5 h
  Doubling time, Passage 1: 25.8 h
  Doubling time, Passage 2: 23.2 h
  Doubling time, Passage 3: 18.6 h
  Maximum cell density, Average: 20.5 ×10^5 cells/ml
  Maximum cell density, Passage 1: 22.4 ×10^5 cells/ml
  Maximum cell density, Passage 2: 18.0 ×10^5 cells/ml
  Maximum cell density, Passage 3: 21.0 ×10^5 cells/ml
[3]; THF 0.0500 mg/L
  Doubling time, Average: 20.9 h
  Doubling time, Passage 1: 22.8 h
  Doubling time, Passage 2: 21.7 h
  Doubling time, Passage 3: 18.2 h
  Maximum cell density, Average: 20.5 ×10^5 cells/ml
  Maximum cell density, Passage 1: 22.0 ×10^5 cells/ml
  Maximum cell density, Passage 2: 18.5 ×10^5 cells/ml
  Maximum cell density, Passage 3: 21.0 ×10^5 cells/ml
[3]; THF 0.1000 mg/L
  Doubling time, Average: 21.2 h
  Doubling time, Passage 1: 22.7 h
